Experimental data from the supplement of paper PMC10307832.

Columns and labels:
Assay in all cases: relative viability (nuclei count vs DMSO), 5 days (fraction); higher = more cells survive
KN-93 + Palbociclib = compound: CN(C/C=C/C1=CC=C(C=C1)Cl)CC2=CC=CC=C2N(CCO)S(=O)(=O)C3=CC=C(C=C3)OC [KN-93] + CC(=O)c1c(C)c2cnc(Nc3ccc(N4CCNCC4)cn3)nc2n(C2CCCC2)c1=O [Palbociclib] (partner 0.5 µM)
Outline: (§1)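 Relative viability equals treated-well nuclei counts divided by vehicle-well nuclei counts. Counts came from 4× images of lung cancer cell lines grown in 1536-well plates for 5 days after pin-tool dosing on the day after seeding. Dosing used one drug alone or a fixed anchor-drug dose plus five library-drug doses (not always all listed) in √10 steps, and values are medians of duplicate plates.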

KN-93 + Bortezomib = compound: CN(C/C=C/C1=CC=C(C=C1)Cl)CC2=CC=CC=C2N(CCO)S(=O)(=O)C3=CC=C(C=C3)OC [KN-93] + CC(C)C[C@H](NC(=O)[C@H](Cc1ccccc1)NC(=O)c1cnccn1)B(O)O [Bortezomib] (partner 0.002 µM)
Outline: as §1

KN-93 + Foretinib = compound: CN(C/C=C/C1=CC=C(C=C1)Cl)CC2=CC=CC=C2N(CCO)S(=O)(=O)C3=CC=C(C=C3)OC [KN-93] + COc1cc2c(Oc3ccc(NC(=O)C4(C(=O)Nc5ccc(F)cc5)CC4)cc3F)ccnc2cc1OCCCN1CCOCC1 [Foretinib] (partner 0.25 µM)
Outline: as §1

KN-93 + Pemetrexed = compound: CN(C/C=C/C1=CC=C(C=C1)Cl)CC2=CC=CC=C2N(CCO)S(=O)(=O)C3=CC=C(C=C3)OC [KN-93] + Nc1nc2[nH]cc(CCc3ccc(C(=O)N[C@@H](CCC(=O)O)C(=O)O)cc3)c2c(=O)[nH]1 [Pemetrexed] (partner 0.2 µM)
Outline: as §1

KN-93 + Decitabine = compound: CN(C/C=C/C1=CC=C(C=C1)Cl)CC2=CC=CC=C2N(CCO)S(=O)(=O)C3=CC=C(C=C3)OC [KN-93] + Nc1ncn([C@H]2C[C@H](O)[C@@H](CO)O2)c(=O)n1 [Decitabine] (partner 2 µM)
Outline: as §1

Cell Line	relative viability (KN-93 + Palbociclib; first compound 0.08 µM)	relative viability (KN-93 + Palbociclib; first compound 0.253 µM)	relative viability (KN-93 + Palbociclib; first compound 2.53 µM)	relative viability (KN-93 + Palbociclib; first compound 8 µM)	relative viability (KN-93 + Bortezomib; first compound 0.08 µM)	relative viability (KN-93 + Bortezomib; first compound 0.253 µM)	relative viability (KN-93 + Bortezomib; first compound 2.53 µM)	relative viability (KN-93 + Bortezomib; first compound 8 µM)	relative viability (KN-93 + Foretinib; first compound 0.08 µM)	relative viability (KN-93 + Foretinib; first compound 0.253 µM)	relative viability (KN-93 + Foretinib; first compound 2.53 µM)	relative viability (KN-93 + Foretinib; first compound 8 µM)	relative viability (KN-93 + Pemetrexed; first compound 0.08 µM)	relative viability (KN-93 + Pemetrexed; first compound 0.253 µM)	relative viability (KN-93 + Pemetrexed; first compound 2.53 µM)	relative viability (KN-93 + Pemetrexed; first compound 8 µM)	relative viability (KN-93 + Decitabine; first compound 0.08 µM)	relative viability (KN-93 + Decitabine; first compound 0.253 µM)	relative viability (KN-93 + Decitabine; first compound 2.53 µM)	relative viability (KN-93 + Decitabine; first compound 8 µM)
NCI-H1437	0.325	0.285	0.271	0.294	0.465	0.564	0.53	0.365	1.17	1.26	1.13	0.64	0.317	0.312	0.247	0.19	0.519	0.768	0.533	0.405
NCI-H1650	0.377	0.323	0.391	0.269	0.218	0.196	0.208	0.203	1.18	1.16	1.25	0.644	0.338	0.427	0.372	0.34	0.349	0.38	0.427	0.44
NCI-H1651	0.511	0.536	0.582	0.488	0.976	1.03	0.987	0.805	0.669	0.845	0.886	0.582	0.611	0.701	0.567	0.511	0.594	0.597	0.623	0.534
NCI-H1666	0.639	0.656	0.669	0.622	0.753	0.669	0.945	0.607	0.85	0.996	1.01	0.959	0.844	1	0.818	0.821	0.705	0.716	0.783	0.748
NCI-H1734	0.345	0.396	0.335	0.263	0.941	0.902	1.1	0.566	0.72	0.847	0.734	0.585	0.457	0.478	0.399	0.417	0.465	0.596	0.502	0.442
NCI-H1755	0.478	0.462	0.45	0.455	0.923	1.07	0.967	0.546	0.993	0.924	0.921	0.794	0.455	0.432	0.453	0.44	0.752	0.723	0.696	0.703
NCI-H1915	0.536	0.537	0.513	0.438	0.929	1.31	1.1	0.54	0.952	1.23	1.25	0.912	0.471	0.601	0.515	0.506	0.274	0.261	0.26	0.246
NCI-H1975	0.475	0.477	0.742	0.193	0.334	0.38	0.33	0.249	0.848	1.11	0.972	0.475	0.277	0.299	0.309	0.221	0.389	0.361	0.412	0.272
NCI-H1993	0.628	0.563	0.595	0.498	0.836	1.02	1.2	0.523	0.774	0.78	0.808	0.672	0.474	0.535	0.618	0.58	0.573	0.548	0.579	0.601
NCI-H2009	0.244	0.204	0.217	0.196	1.05	0.995	0.84	0.462	1.2	1.37	1.29	0.914	1.01	1.07	1.1	0.796	0.421	0.393	0.399	0.317
NCI-H2023	0.384	0.436	0.49	0.227	0.971	0.955	1.04	0.448	0.935		0.981	0.627	0.244	0.247	0.325	0.14	0.189	0.239	0.219	0.201
NCI-H2085	0.484	0.427	0.456	0.387	0.909	1.12	1.16	0.663	1	0.994	1.05	0.664	0.933	0.905	0.883	0.739	0.581	0.502	0.516	0.496
NCI-H2087	0.228	0.218	0.208	0.175	0.759	1.24	0.874	0.33	0.983	1.31	1.21	0.697	0.694	0.672	0.564	0.607	0.28	0.235	0.273	0.155
NCI-H2126	0.341	0.333	0.362	0.354	1.07	1.08	1.19	1.09	1.14	0.899	1.23	1.11	0.541	0.64	0.69	0.654	0.51	0.522	0.656	0.475
NCI-H2347	0.378	0.44	0.434	0.407	1.27	0.741	0.828	0.745	1.12	0.656	1.25	0.593	0.376	0.473	0.45	0.549	0.57	0.617	0.643	0.539
